Converted amounts (≈) assume the structure as drawn.
Assays:
Meloidogyne incognita [1] = experiment: Nematicidal activity against second juvenile stage of Meloidogyne incognita (root-knot nematode) infected lima bean plant assessed as emergence at 2 kg ai/ha applied to soil measured during planting under green house conditions (reference value: 83 +/- 5%); assay type: functional
Spodoptera exigua = experiment: Insecticidal activity against Spodoptera exigua infested tomato assessed as mortality applied through foliar spray after 72 hr; assay type: functional
Meloidogyne incognita [2] = experiment: Nematicidal activity against second juvenile stage of Meloidogyne incognita (root-knot nematode) infected pea plant assessed as reduction in root gall index at 2 kg ai/ha applied to soil measured up to 7 days post planting under green house conditions (reference value: 9.7 +/- 0.30%); assay type: functional
Gossypium hirsutum = experiment: Phytotoxicity in Gossypium hirsutum (cotton) assessed as concentration required to cause foliar edge burn applied to soil after 3 weeks; assay type: organism-based; settings: in vivo, other, 504 h
Pisum sativum [3] = experiment: Phytotoxicity in Pisum sativum (pea) assessed as emergence at 4 kg ai/ha applied to soil measured up to 7 days post planting at 19 degC relative to untreated control; assay type: organism-based; settings: lathyrus oleraceus, in vivo, other, 168 h
Pisum sativum [4] = experiment: Phytotoxicity in Pisum sativum (pea) assessed as plant height at 2 kg ai/ha applied to soil measured up to 7 days post planting at 27 degC under green house conditions (reference value: 9.6 +/- 1.5 cm); assay type: organism-based; settings: lathyrus oleraceus, in vivo, other, 168 h
Meloidogyne incognita [5] = experiment: Nematicidal activity against second juvenile stage of Meloidogyne incognita (root-knot nematode) infected lima bean plant assessed as reduction in root gall index at 2 kg ai/ha applied to soil measured up to 7 days post planting under green house conditions (reference value: 7 +/- 0.27%); assay type: functional
Phaseolus lunatus [6] = experiment: Phytotoxicity in Phaseolus lunatus (lima bean) plant assessed as emergence at 3.12 kg ai/ha applied to soil measured up to 14 days under green house conditions (reference value: 70 +/- 16%); assay type: organism-based; settings: in vivo, other, 336 h
Meloidogyne incognita [7] = experiment: Nematicidal activity against second juvenile stage of Meloidogyne incognita (root-knot nematode) infected lima bean plant assessed as shoot dry weight at 4 kg ai/ha applied to soil measured up to 14 days post planting under green house conditions (reference value: 1.84 +/- 0.18 g); assay type: functional
Meloidogyne incognita [8] = experiment: Nematicidal activity against second juvenile stage of Meloidogyne incognita (root-knot nematode) infected lima bean plant assessed as shoot dry weight at 2 kg ai/ha applied to soil measured up to 7 days post planting under green house conditions (reference value: 1.84 +/- 0.18 g); assay type: functional
Meloidogyne incognita [9] = experiment: Nematicidal activity against second juvenile stage of Meloidogyne incognita (root-knot nematode) assessed as mortality after 48 hr; assay type: functional
Pisum sativum [10] = experiment: Phytotoxicity in Pisum sativum (pea) assessed as plant fresh weight at 4 kg ai/ha applied to soil measured up to 7 days post planting at 19 degC (reference value: 9.4 +/- 0.54 g); assay type: organism-based; settings: lathyrus oleraceus, in vivo, other, 168 h
Meloidogyne incognita [11] = experiment: Nematicidal activity against second juvenile stage of Meloidogyne incognita (root-knot nematode) infected lima bean plant assessed as emergence at 4 kg ai/ha applied to soil measured up to 14 days post planting under green house conditions (reference value: 83 +/- 5%); assay type: functional
Pisum sativum [12] = experiment: Phytotoxicity in Pisum sativum (pea) assessed as root dry weight at 3 kg ai/ha applied to soil measured up to 7 days post planting at 27 degC under green house conditions (reference value: 0.33 +/- 0.075 g); assay type: organism-based; settings: lathyrus oleraceus, in vivo, other, 168 h
Meloidogyne incognita [13] = experiment: Nematicidal activity against second juvenile stage of Meloidogyne incognita (root-knot nematode) infected lima bean plant assessed as shoot dry weight at 3 kg ai/ha applied to soil measured up to 7 days post planting under green house conditions (reference value: 1.84 +/- 0.18 g); assay type: functional
Phaseolus lunatus [14] = experiment: Phytotoxicity in Phaseolus lunatus (lima bean) plant assessed as plant dry weight at 1.12 kg ai/ha applied to soil under green house conditions (reference value: 1.20 +/- 0.21 g); assay type: organism-based; settings: in vivo, other
Pisum sativum [15] = experiment: Phytotoxicity in Pisum sativum (pea) assessed as plant fresh weight at 2 kg ai/ha applied to soil measured up to 7 days post planting at 19 degC (reference value: 9.4 +/- 0.54 g); assay type: organism-based; settings: lathyrus oleraceus, in vivo, other, 168 h
Phaseolus lunatus [16] = experiment: Phytotoxicity in Phaseolus lunatus (lima bean) plant assessed as emergence at 2.56 kg ai/ha applied to soil measured up to 14 days under green house conditions (reference value: 70 +/- 16%); assay type: organism-based; settings: in vivo, other, 336 h
Phaseolus lunatus [17] = experiment: Phytotoxicity in Phaseolus lunatus (lima bean) plant assessed as emergence at 1.56 kg ai/ha applied to soil measured up to 7 days under green house conditions (reference value: 70 +/- 16%); assay type: organism-based; settings: in vivo, other, 168 h
Pisum sativum [18] = experiment: Phytotoxicity in Pisum sativum (pea) assessed as plant height at 3 kg ai/ha applied to soil measured up to 14 days post planting at 27 degC under green house conditions (reference value: 9.6 +/- 1.5 cm); assay type: organism-based; settings: lathyrus oleraceus, in vivo, other, 336 h
Bemisia tabaci = experiment: Insecticidal activity against second-instar […] stage of Bemisia tabaci (sweet potato whitefly) infested cotton assessed as mortality applied to soil after 6 days; assay type: functional
Meloidogyne incognita [19] = experiment: Nematicidal activity against second juvenile stage of Meloidogyne incognita (root-knot nematode) infected lima bean plant assessed as shoot dry weight at 2 kg ai/ha applied to soil measured during planting under green house conditions (reference value: 1.84 +/- 0.18 g); assay type: functional
Pisum sativum [20] = experiment: Phytotoxicity in Pisum sativum (pea) assessed as plant height at 3 kg ai/ha applied to soil measured up to 7 days post planting at 19 degC (reference value: 6.2 +/- 0.6 cm); assay type: organism-based; settings: lathyrus oleraceus, in vivo, other, 168 h
Meloidogyne incognita [21] = experiment: Nematicidal activity against second juvenile stage of Meloidogyne incognita (root-knot nematode) infected pea plant assessed as root fresh weight at 4 kg ai/ha applied to soil measured up to 14 days post planting under green house conditions (reference value: 1.83 +/- 0.3 g); assay type: functional
Pisum sativum [22] = experiment: Phytotoxicity in Pisum sativum (pea) assessed as plant fresh weight at 3 kg ai/ha applied to soil measured up to 14 days post planting at 27 degC under green house conditions (reference value: 3.9 +/- 0.83 g); assay type: organism-based; settings: lathyrus oleraceus, in vivo, other, 336 h
Trichoplusia ni = experiment: Insecticidal activity against Trichoplusia ni (cabbage looper) infested cabbage assessed as mortality applied through foliar spray after 72 hr; assay type: functional
Phaseolus lunatus [23] = experiment: Phytotoxicity in Phaseolus lunatus (lima bean) root assessed as root dry weight at 2.56 kg ai/ha applied to soil measured up to 14 days under green house conditions (reference value: 0.36 +/- 0.071 g); assay type: organism-based; settings: in vivo, other, 336 h
Pisum sativum [24] = experiment: Phytotoxicity in Pisum sativum (pea) assessed as emergence at 3 kg ai/ha applied to soil measured up to 7 days post planting at 19 degC relative to untreated control; assay type: organism-based; settings: lathyrus oleraceus, in vivo, other, 168 h
Pisum sativum [25] = experiment: Phytotoxicity in Pisum sativum (pea) assessed as plant height at 3 kg ai/ha applied to soil measured up to 7 days post planting at 27 degC under green house conditions (reference value: 9.6 +/- 1.5 cm); assay type: organism-based; settings: lathyrus oleraceus, in vivo, other, 168 h
Meloidogyne incognita [26] = experiment: Nematicidal activity against second juvenile stage of Meloidogyne incognita (root-knot nematode) infected lima bean plant assessed as reduction in root gall index at 3 kg ai/ha applied to soil measured up to 14 days post planting under green house conditions (reference value: 7 +/- 0.27%); assay type: functional

CNC(=O)ON=C(C)SC [METHOMYL] showed an Activity (Meloidogyne incognita [1]) of 100%, an LC90 (Spodoptera exigua) of 60 µg/mL (≈ 370 µM) and an LC50 (Spodoptera exigua; Spodoptera exigua, foliar, 72 h) of 29 µg/mL (≈ 179 µM). It also gave a Root_galling_index (Meloidogyne incognita [2]) of 0%, an Activity (Gossypium hirsutum) of 100 µg/mL and an Activity (Pisum sativum [3]) of 100%. The Activity (Pisum sativum [4]) was 7.1 cm, the Root_galling_index (Meloidogyne incognita [5]) was 0% and the Activity (Phaseolus lunatus [6]) was 60%. The Activity (Meloidogyne incognita [7]) was 1.02 g, the Activity (Meloidogyne incognita [8]) was 1.83 g and the LC90 (Meloidogyne incognita [9]) was 15.2 µg/mL (≈ 93.7 µM). It also gave an LC50 (Meloidogyne incognita [9]; Meloidogyne incognita, Juvenile stage, 48 h) of 4.9 µg/mL (≈ 30.2 µM), an Activity (Pisum sativum [10]) of 8.5 g and an Activity (Meloidogyne incognita [11]) of 83%. The Activity (Pisum sativum [12]) was 0.2 g, the Activity (Meloidogyne incognita [13]) was 1.39 g and the Activity (Phaseolus lunatus [14]) was 1.51 g. The Activity (Pisum sativum [15]) was 11.6 g, the Activity (Phaseolus lunatus [16]) was 80% and the Activity (Phaseolus lunatus [17]) was 80%. The Activity (Pisum sativum [18]) was 9.1 cm, the LC90 (Bemisia tabaci) was 1119 µg/mL (≈ 6900 µM) and the LC50 (Bemisia tabaci; Bemisia tabaci, soil, 144 h) was 673 µg/mL (≈ 4150 µM). For the same compound, the Activity (Meloidogyne incognita [19]) was 1.59 g, the Activity (Pisum sativum [20]) was 6.9 cm and the Activity (Meloidogyne incognita [21]) was 1.36 g. For the same compound, the Activity (Pisum sativum [22]) was 3.3 g, the LC90 (Trichoplusia ni) was 533 µg/mL (≈ 3290 µM) and the LC50 (Trichoplusia ni; Trichoplusia ni, foliar, 72 h) was 99 µg/mL (≈ 610 µM). It also gave an Activity (Phaseolus lunatus [23]) of 0.31 g, an Activity (Pisum sativum [24]) of 87% and an Activity (Pisum sativum [25]) of 7 cm. For the same compound, the Root_galling_index (Meloidogyne incognita [26]) was 0%.

Reference: ChEMBL document CHEMBL3045068, “Effect of methomyl and oxamyl soil applications on early control of nematodes and insects” (Pest Manag Sci, 2011)
